≈ marks a conversion by molar mass, not a printed value.

Assay [1] deals with methicillin and penicillin-resistant strains of Staphylococcus aureus. The settings on record: cited from earlier work.
Assay [2] deals with Mycobacterium tuberculosis. The settings on record: cited from earlier work.
The subject of assay [3] is tibial joint cartilage explants. Nature of the assay: Rabbit cartilage explants: protection against IL-1β-induced cartilage degradation (GAG release). Conditions: CHX 2.5 µg/ml.
Experimental: The explants (2 x 2 mm) have been transferred to plates with wells and equilibrated for 48 hours at 37°C with high glucose DMEM plus 10% FCS and 50 µg/ml gentamycin. Explants have then been stimulated for 48 hours with 1 ng/ml IL-1β in aphenolic DMEM, 1 g/l glucose, 50 µg/ml gentamycin and 1% BSA. IL-1β elicits strong activation of the enzymes which depolymerise the proteoglycan aggregates of the cartilage matrix, resulting in its degradation, with the release of the breakdown products, mainly represented by the various glycosaminoglycans (GAG) making up the proteoglycan aggregates, into the culture liquid. […] In order to assess the effects of the test products on IL-1β-induced cartilage degradation, they have been added to the cartilage explants 20 minutes prior to stimulation with IL-1β. Cartilage degradation has been assessed by expressing the GAG released into the culture liquid as a percentage of the total GAG measured following complete digestion of the cartilage explants using papain.
The subject of assay [4] is zymosan-induced rat paw oedema. Put plainly: Rat: anti-inflammatory activity on zymosan-induced paw oedema. It is filed as in vivo. Conditions: oral, 10 mg/kg (Man, ASS as mangostin; ASS 10 = Man 10 + CGS 133). As for the experimental part:
The anti-inflammatory activities of the test products have been assessed according to Di Rosa et al. [1971] on rat paw oedema induced by a subplantar injection of 4 mg di zymosan in 0.1 ml of isotonic saline. Paw volume has been measured pletismographically at 0, 1, 2, 4, 6 and 24 hours following the injection of zymosan, and expressed in ml of difference, with respect to the baseline volume. The test products, suspended in 5 ml/kg of 5% methylcellulose, have been administered with a gastric probe 30 minutes prior to the injection of zymosan. Celecoxib, a known COX-2 inhibitor, widely used clinically, and administered orally at a dose of 10 mg/kg, has been used as a reference standard. In order to express the treatment effects numerically, the areas under the curves of paw volume increase from 0 to 24 hours have been measured, thus giving the measurement of paw oedema in mlx24 hours.

Assay [5] has as its system zymosan-induced rat paw hyperalgesia. Nature of the assay: Rat: analgesic activity (Randall and Selitto) on zymosan-induced paw hyperalgesia. It is filed as in vivo. Conditions: oral, 10 mg/kg (Man, ASS as mangostin; ASS 10 = Man 10 + CGS 133). As for the experimental part: The analgesic activities of the test products have been evaluated using the technique of Randall and Selitto [1957] on hyperalgesia induced in rat paw by a subplantar injection of 4 mg di zymosan in 0.1 ml of isotonic saline. The mechanical nociceptive threshold has been determined using an analgesimeter (Ugo Basile, Varese, Italy) at 0, 1, 2, 4, 6 and 24 hours following the injection of zymosan. The analgesimeter measures the weight (in grams) applied to the paw which causes the reflex retraction of the paw itself. The nociceptive threshold has been expressed as the difference (in grams) in nociceptive threshold at time 0. The test products have been administered orally 30 minutes prior to the injection of zymosan. Celecoxib, a known COX-2 inhibitor, widely used clinically as an analgesic-anti-inflammatory, and administered orally at a dose of 10 mg/kg, has been used as a reference standard. In order to express the treatment effects numerically, the areas under the curves of the analgesimetric weight increase on the inflamed paw have been measured from 0 to 24 hours, thus giving the measurement in g x 24 hours of the area under the analgesimetric curve.

Regarding `COc1cc2oc3cc(O)c(OC)c(CC=C(C)C)c3c(=O)c2c(O)c1CC=C(C)C` [β-mangostin], the figures for the minimal inhibitory concentration (MIC) in assay [1] and in assay [2] were 1.6 µg/mL (≈ 3.77 µM) and 6.25 µg/mL (≈ 14.7 µM), respectively.
On to `COc1c(O)cc2oc3cc(O)c(CC=C(C)C)c(O)c3c(=O)c2c1CC=C(C)C` [α-mangostin], for which the minimal inhibitory concentration (MIC) (in general, the least concentration at which growth counts as inhibited) in assay [1] is 1.6 µg/mL (≈ 3.9 µM); in assay [2] it was 6.25 µg/mL (≈ 15.2 µM).
Consider `C[C@@H]1C[C@@H]([C@H](O)CC2CC(=O)NC(=O)C2)C(=O)[C@@H](C)C1` [CHX, Cycloheximide], for which the “%GAG released” value in assay [3] was found to be 12%. Besides, in assay [3] (GAG release, protection positive), the “%Diff. vs baseline” value was 82.6%.
Regarding `Cc1ccc(-c2cc(C(F)(F)F)nn2-c2ccc(S(N)(=O)=O)cc2)cc1` [CLX, Celecoxib], the “% Diff. vs. control” value is reported as -30% in assay [4] (oedema) and -46% in assay [5] (analgesia). In addition, the Diff. vs. control in assay [4] (oedema) is -4.7 mlx24 hours; in assay [5] (difference of the Analgesia Δgx24h values), -497. Also, the Oedema in assay [4] (area under curve 0-24 h) is listed as 11.8 Δmlx24h. Besides, the Analgesia in assay [5] (area under analgesimetric curve 0-24 h) is on record as 574 Δgx24h.
